These results are taken from the NIST ThermoML archive (doi:10.1016/j.jct.2007.11.002).

The structures appear in SMILES notation. ± gives the expanded uncertainty stated by the source.

For the series the following is noted: 101.33 kPa, Liquid; for viscosity: Capillary tube (Ostwald / Ubbelohde) method; for mass density: Vibrating tube method.

Regarding `CN1CCOCC1` [N-methylmorpholine], the viscosity (298.15 K) is listed as 0.881 ± 0.012 mPa·s, the viscosity (303.15 K) came out at 0.864 ± 0.012 mPa·s, the viscosity (313.15 K) is 0.833 ± 0.011 mPa·s and the viscosity (323.15 K) is recorded as 0.814 ± 0.011 mPa·s. The mass density is given as 914.06 ± 0.74 kg/m3 (298.15 K), 909.44 ± 0.73 kg/m3 (303.15 K), 899.76 ± 0.72 kg/m3 (313.15 K) and 890.85 ± 0.71 kg/m3 (323.15 K).

With `c1ccccc1` [benzene], the viscosity (298.15 K) is 0.601 ± 0.007 mPa·s, the viscosity (303.15 K) was determined as 0.563 ± 0.007 mPa·s, the viscosity (313.15 K) is recorded as 0.494 ± 0.007 mPa·s and the viscosity (323.15 K) came out at 0.436 ± 0.007 mPa·s. The mass density worked out at 873.58 ± 0.09 kg/m3 (298.15 K), 868.23 ± 0.09 kg/m3 (303.15 K), 857.38 ± 0.1 kg/m3 (313.15 K) and 846.62 ± 0.1 kg/m3 (323.15 K).

As for `C1CCCCC1` [cyclohexane], the viscosity was 0.904 ± 0.009 mPa·s (298.15 K), 0.809 ± 0.009 mPa·s (303.15 K), 0.698 ± 0.008 mPa·s (313.15 K) and 0.604 ± 0.008 mPa·s (323.15 K). Moreover, the mass density is, setting by setting: (298.15 K) 773.25 ± 0.24 kg/m3; (303.15 K) 769.18 ± 0.24 kg/m3; (313.15 K) 759.58 ± 0.24 kg/m3; (323.15 K) 750.03 ± 0.24 kg/m3.

For the compound `Cc1ccccc1` [toluene], the viscosity turned out to be 0.553 ± 0.007 mPa·s (298.15 K), 0.523 ± 0.007 mPa·s (303.15 K), 0.471 ± 0.007 mPa·s (313.15 K) and 0.422 ± 0.007 mPa·s (323.15 K). The mass density is reported as 862.11 ± 0.23 kg/m3 (298.15 K), 857.62 ± 0.23 kg/m3 (303.15 K), 847.87 ± 0.25 kg/m3 (313.15 K) and 838.42 ± 0.29 kg/m3 (323.15 K).

A word on the viscosity: it is the resistance of a fluid to flow. Usually mass density stands for the mass of a sample divided by its volume.
